Reference: patent US4110368A, “Hydro substituted prostanoic acids and esters” (American Cyanamid Company, priority 1977, dated 1978)

Columns and labels:
[1] = system: ulcerogenic properties of indomethacin; assay: protection against indomethacin-induced ulcers (ulcer score); assay type: in vivo, rat; settings: two half doses by gavage, indomethacin 20 mg./kg. s.c., ulcer scale 0-4, score 2.5 or lower = active
Procedure: The compounds of this invention provide protection against the ulcerogenic properties of indomethacin. This assay was carried out in the following manner.
Rats were starved for 48 hours (water was given ad libitum). Indomethacin (20 mg./kg. of body weight) was administered by the subutaneous route and one-half the dose of the test compound was administered by gavage at the same time. After 3 hours, the second half of the test compound was administered also by Gavage. Five hours after the administration of indomethacin the animals were decapitated and the stomachs removed. The stomachs were washed with distilled water, blotted on gauze, cut along the larger curvature, and the contents rinsed with distilled water. The stomachs were spread out, pinned on a cork and visualized under magnifying glass for ulcers. The criteria for scoring of ulcers was as previously reported. [Abdel-Galil et al. Brit. J. Pharmac. Chemotherapy 33:1-14 (1968)].
1 -- Petechial hemorrhage or pin point ulcer
3 -- Many ulcers, a few large
4 -- Many ulcers, mainly large
Control animals treated with indomethacin but not test compound consistently give scores of about 3.0-3.5. Control animals treated with neither indomethacin nor test compound give scores of about 0.5-0.8. Compounds producing a score of 2.5 or lower are considered to be active.

gastric acid secretion = gastric acid secretion inhibition, modified Shay rat procedure; assay type: in vivo, rat (male, CFE strain); settings: intraduodenal dose 100 mg./kg. of body weight; 3 hours; 20% or more = active
Procedure: The novel compounds of the present invention are also effective inhibitors of gastric acid secretion and of ulcer development in experimental animals, and thus are potentially valuable as agents for the control of gastric acid secretion and of gastric erosion and as anti-ulcer agents. Gastric acid secretion inhibitory action is usually measured by the "Shay rat" procedure ^(1,2) with some modifications as follows.
The rats (male, CFE strain) were starved for 48 hours (water was given ad libitum) to permit evacuation of stomach contents. On the morning of the experiment, under ether anesthesia, the abdominal region was shaved and a midline incision (1-1 1/2 inch) was made with a scapel. […]
The abdominal cavity was exposed by cutting with scissors and the esophagus close to the stomach was clamped off with a hemostat, the stomach was removed by cutting above the hemostat (the esophagus was cut) and between the two sutures. […] The supernatant was collected, volume measured and recorded, 2 drops of a phenolphthalein indicator (1% in 95% ethanol) were added and the solution was titrated with 0.02N NaOH (or with 0.04N NaOH when large volumes of stomach contents were encountered) to pH 8.4 (because of usual coloring of the stomach contents, phenolphthalein was only used to permit visual indication that the end point was near) and the amount of acid present was calculated. […]

[2] = total oral dose 25 mg./kg. of body weight, control 3.2

SMILES: CCCCCC(O)/C=C/C1CCC(=O)C1(C)CCCCCCC(=O)O (stereo not drawn) [9-oxo-8β-methyl-15-hydroxy-13-trans-prostenoic acid]
- Score, Treated ([1]; total oral dose 12.5 mg./kg. of body weight, control 3.0): 2.0

SMILES: CCCCCC(O)/C=C\[C@H]1CCC(=O)[C@@H]1CCCCCCC(=O)O (relative stereo) [9-oxo-15-hydroxy-13-cis-prostenoic acid, 15-hydroxy-9-oxo-13-cis-prostenoic acid]
- Score, Treated ([1]; total oral dose 100 mg./kg. of body weight, control 3.0): 1.3

SMILES: CCCCC[C@@H](O)/C=C/[C@H]1CCC(=O)[C@@H]1CCCCSCC(=O)O (relative stereo) [9-oxo-3-thia-15-epi-hydroxy-13-trans-prostenoic acid]
- Score, Treated [1, 2]: 2.3

SMILES: CCCCCC(O)/C=C/[C@H]1CCC(=O)[C@@H]1CCCCC(C)(C)CC(=O)O (relative stereo) [9-oxo-15-hydroxy-3,3-dimethyl-13-trans-prostenoic acid]
- Percent Inhibition (gastric acid secretion) (gastric acid secretion): 51%

SMILES: CCCCC(CC)C(O)/C=C/[C@H]1CCC(=O)[C@@H]1CCCCCCC(=O)O (relative stereo) [9-oxo-15-hydroxy-16-ethyl-13-trans-prostenoic acid]
- Score, Treated [1, 2]: 1.7

SMILES: CCCCCC(O)/C=C/[C@H]1CCC(=O)[C@@H]1CCCCCC(CC)C(=O)O (relative stereo)
- Score, Treated ([1]; total oral dose 50 mg./kg. of body weight, control 3.0): 2.2

SMILES: CCCCCC(O)/C=C/C1CCC(=O)C1CCCCSCC(=O)O (stereo not drawn) [9-oxo-3-thia-15-hydroxy-13-trans-prostenoic acid]
- Score, Treated [1, 2]: 1.8
